The values that follow are results of earlier work, collected in publication PMC9516332 (Frontiers in Oncology, 2022).

Structures are written as SMILES. Like-named read-outs stand apart in the source and are kept apart here.

The target of series [1] is panel of 255 wild-type kinases (Homo sapiens, UniProt O75582). To be noted: MSK1, 1 µmol/L single concentration, cited from earlier work.
For series [2], the target named is panel of 255 wild-type kinases (Homo sapiens, UniProt P05129). The note with it: kinase PKCγ, 1 µmol/L single concentration, cited from earlier work.
The target of series [3] is panel of 255 wild-type kinases (Homo sapiens, UniProt P11362). To be noted: kinase FGFR1, 1 µmol/L single concentration, cited from earlier work.
The target of series [4] is T1, panel of 255 wild-type kinases (Homo sapiens, UniProt P41743).
T1 sequence (P41743 1-596): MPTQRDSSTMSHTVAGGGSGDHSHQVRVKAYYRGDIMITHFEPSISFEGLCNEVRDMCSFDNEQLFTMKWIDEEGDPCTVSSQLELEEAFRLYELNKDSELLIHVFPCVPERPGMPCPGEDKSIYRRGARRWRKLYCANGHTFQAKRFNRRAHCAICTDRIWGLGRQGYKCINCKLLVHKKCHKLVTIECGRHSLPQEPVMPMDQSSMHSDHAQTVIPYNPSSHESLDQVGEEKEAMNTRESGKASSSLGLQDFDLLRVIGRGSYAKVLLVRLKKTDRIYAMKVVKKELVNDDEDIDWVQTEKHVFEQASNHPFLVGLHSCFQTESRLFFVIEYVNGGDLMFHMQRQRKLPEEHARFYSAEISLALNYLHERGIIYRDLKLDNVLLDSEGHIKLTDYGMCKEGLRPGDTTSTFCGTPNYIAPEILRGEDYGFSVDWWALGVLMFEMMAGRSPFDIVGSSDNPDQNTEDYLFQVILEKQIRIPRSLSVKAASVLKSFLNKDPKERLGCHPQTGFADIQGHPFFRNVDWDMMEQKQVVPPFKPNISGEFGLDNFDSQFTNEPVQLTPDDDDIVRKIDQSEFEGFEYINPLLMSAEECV
To be noted: kinase PKCι, 1 µmol/L single concentration, cited from earlier work.

Series [5] addresses panel of 255 wild-type kinases (Homo sapiens, UniProt P45984). To be noted: kinase JNK2, 1 µmol/L single concentration, cited from earlier work.
Series [6] addresses panel of 255 wild-type kinases (Homo sapiens, UniProt P48729). To be noted: kinase CK1α, 1 µmol/L single concentration, cited from earlier work.
Series [7] addresses panel of 255 wild-type kinases (Homo sapiens, UniProt Q05655). To be noted: cited from earlier work.
In series [8] the target is panel of 255 wild-type kinases (Homo sapiens, UniProt Q16816). The note with it: kinase PHKG1, 1 µmol/L single concentration, cited from earlier work.
The target in series [9] is T2, panel of 255 wild-type kinases (Homo sapiens, UniProt Q96KB5).
T2 sequence (Q96KB5 1-322): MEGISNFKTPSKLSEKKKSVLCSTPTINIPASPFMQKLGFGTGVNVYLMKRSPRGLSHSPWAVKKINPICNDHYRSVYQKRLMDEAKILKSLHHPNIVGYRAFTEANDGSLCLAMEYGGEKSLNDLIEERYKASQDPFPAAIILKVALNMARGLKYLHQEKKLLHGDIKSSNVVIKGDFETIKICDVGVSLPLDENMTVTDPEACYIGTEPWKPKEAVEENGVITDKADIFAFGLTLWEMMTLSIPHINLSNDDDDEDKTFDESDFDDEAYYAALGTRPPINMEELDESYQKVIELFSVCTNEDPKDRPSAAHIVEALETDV
To be noted: kinase PBK, 1 µmol/L single concentration, cited from earlier work.

In series [10] the target is panel of 255 wild-type kinases (Homo sapiens, UniProt Q96RG2). To be noted: PASK, 1 µmol/L single concentration, cited from earlier work.
The target of series [11] is panel of 255 wild-type kinases (Homo sapiens, UniProt Q9BYP7). To be noted: kinase WNK3, 1 µmol/L single concentration, cited from earlier work.
The target in series [12] is T3, panel of 255 wild-type kinases (Homo sapiens, UniProt Q9H093).
T3 sequence (Q9H093 1-628): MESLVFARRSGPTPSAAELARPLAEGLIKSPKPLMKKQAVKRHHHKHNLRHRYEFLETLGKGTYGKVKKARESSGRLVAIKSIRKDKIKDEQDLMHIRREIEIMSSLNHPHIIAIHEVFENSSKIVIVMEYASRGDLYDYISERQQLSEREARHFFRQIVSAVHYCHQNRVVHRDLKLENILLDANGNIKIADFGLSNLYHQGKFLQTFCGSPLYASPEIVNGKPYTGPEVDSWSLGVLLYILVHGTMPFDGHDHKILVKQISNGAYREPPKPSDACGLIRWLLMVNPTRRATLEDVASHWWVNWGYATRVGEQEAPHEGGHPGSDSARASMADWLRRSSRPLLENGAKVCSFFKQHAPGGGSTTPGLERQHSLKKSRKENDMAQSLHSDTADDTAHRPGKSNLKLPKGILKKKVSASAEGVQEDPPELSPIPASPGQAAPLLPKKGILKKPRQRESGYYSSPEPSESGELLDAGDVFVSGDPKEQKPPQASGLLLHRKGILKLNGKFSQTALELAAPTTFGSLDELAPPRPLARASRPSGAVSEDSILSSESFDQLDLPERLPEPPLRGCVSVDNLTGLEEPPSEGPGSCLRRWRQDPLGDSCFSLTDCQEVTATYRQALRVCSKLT
To be noted: NuaK2, 1 µmol/L single concentration, cited from earlier work.

Where [13] appears, read: ref DOI: 10.1371/journal.pone.0092146.
Where [14] appears, read: kinase PKCδ, 1 µmol/L single concentration, ref DOI: 10.1371/journal.pone.0092146.
[15] abbreviates: ref DOI: 10.1158/1535-7163.MCT-18-0877.
[16] abbreviates: kinase PKCδ, 1 µmol/L single concentration, ref DOI: 10.1158/1535-7163.MCT-18-0877.

Take `CC(C)(C)c1nc(-c2cccc(NS(=O)(=O)c3c(F)cccc3F)c2F)c(-c2ccnc(N)n2)s1` [dabrafenib]: in series [1] (setting [13]), the “%-inhibition, MSK1” value was 0.0759%. Also, the “%-inhibition at 1 µmol/L, PKCγ” value in [2] (setting [13]) is listed as -0.381%. Further, in series [3] (setting [13]), the “%-inhibition at 1 µmol/L, FGFR1” value is 10%. Besides, the “%-inhibition at 1 µmol/L, PKCι” value in series [4] (setting [13]) is 14%. In addition, the “%-inhibition at 1 µmol/L, JNK2” value in series [5] (setting [13]) was -0.947%. For the same compound, the “%-inhibition at 1 µmol/L, CK1α” value in series [6] (setting [13]) is recorded as 13%. In addition, in [7] (setting [14]), the “%-inhibition at 1 µmol/L, PKCδ” value is on record as -6%. Moreover, the “%-inhibition at 1 µmol/L, PHKG1” value in series [8] (setting [13]) is recorded as -0.59%. In addition, the “%-inhibition at 1 µmol/L, PBK” value in [9] (setting [13]) was 12%. Moreover, in series [10] (setting [13]), the “%-inhibition, PASK” value is given as 1.12%. The “%-inhibition at 1 µmol/L, WNK3” value in series [11] (setting [13]) was 1.34%. Moreover, the “%-inhibition, NuaK2” value in [12] (setting [13]) was 4.53%.
Take `C=CC(=O)N1CCC[C@@H](n2nc(-c3ccc(Oc4ccccc4)cc3)c3c(N)ncnc32)C1` [ibrutinib]: the “%-inhibition, MSK1” value in series [1] (setting [15]) was -1.18%. For the same compound, the “%-inhibition at 1 µmol/L, PKCγ” value in [2] (setting [15]) is 0.797%. Moreover, in series [3] (setting [15]), the “%-inhibition at 1 µmol/L, FGFR1” value is on record as 71%. The “%-inhibition at 1 µmol/L, PKCι” value in series [4] (setting [15]) is 2.23%. The “%-inhibition at 1 µmol/L, JNK2” value in series [5] (setting [15]) was -2.83%. Further, the “%-inhibition at 1 µmol/L, CK1α” value in series [6] (setting [15]) is on record as -2%. Further, the “%-inhibition at 1 µmol/L, PKCδ” value in series [7] (setting [16]) was 0.525%. Besides, the “%-inhibition at 1 µmol/L, PHKG1” value in series [8] (setting [15]) is recorded as 1.53%. Besides, the “%-inhibition at 1 µmol/L, PBK” value in [9] (setting [15]) is given as -9%. The “%-inhibition, PASK” value in series [10] (setting [15]) is recorded as -0.0437%. For the same compound, the “%-inhibition at 1 µmol/L, WNK3” value in [11] (setting [15]) is listed as 7%. Also, the “%-inhibition, NuaK2” value in series [12] (setting [15]) is on record as 6.37%.
For the compound `CO[C@@H]1[C@H](N(C)C(=O)c2ccccc2)C[C@H]2O[C@]1(C)n1c3ccccc3c3c4c(c5c6ccccc6n2c5c31)C(=O)NC4` [midostaurin], the “%-inhibition, MSK1” value in series [1] (setting [15]) is given as 88%. The “%-inhibition at 1 µmol/L, PKCγ” value in series [2] (setting [15]) is 91%. Besides, the “%-inhibition at 1 µmol/L, FGFR1” value in series [3] (setting [15]) was 93%. In series [4] (setting [15]), the “%-inhibition at 1 µmol/L, PKCι” value is listed as 3%. Besides, the “%-inhibition at 1 µmol/L, JNK2” value in series [5] (setting [15]) is reported as 8%. For the same compound, in [6] (setting [15]), the “%-inhibition at 1 µmol/L, CK1α” value is 3.51%. The “%-inhibition at 1 µmol/L, PKCδ” value in [7] was 93%. The “%-inhibition at 1 µmol/L, PHKG1” value in series [8] (setting [15]) is given as 97%. Besides, in [9] (setting [15]), the “%-inhibition at 1 µmol/L, PBK” value was -7%. In addition, in [10] (setting [15]), the “%-inhibition, PASK” value was 6%. Further, the “%-inhibition at 1 µmol/L, WNK3” value in [11] (setting [15]) is reported as 5.27%. In addition, the “%-inhibition, NuaK2” value in series [12] (setting [15]) was 99%.
Consider `C=CC(=O)Nc1cc(Nc2nccc(-c3cn(C)c4ccccc34)n2)c(OC)cc1N(C)CCN(C)C` [osimertinib], for which the “%-inhibition, MSK1” value in [1] (setting [15]) is listed as -0.561%. The “%-inhibition at 1 µmol/L, PKCγ” value in series [2] (setting [15]) is reported as 14%. The “%-inhibition at 1 µmol/L, FGFR1” value in series [3] (setting [15]) is given as 3.51%. Also, the “%-inhibition at 1 µmol/L, PKCι” value in series [4] (setting [15]) was 20%. Besides, the “%-inhibition at 1 µmol/L, JNK2” value in series [5] (setting [15]) was -2.75%. Further, the “%-inhibition at 1 µmol/L, CK1α” value in [6] (setting [15]) was 4.46%. Also, in series [7] (setting [16]), the “%-inhibition at 1 µmol/L, PKCδ” value is 16%. In series [8] (setting [15]), the “%-inhibition at 1 µmol/L, PHKG1” value is recorded as 38%. Moreover, in series [9] (setting [15]), the “%-inhibition at 1 µmol/L, PBK” value is 77%. The “%-inhibition, PASK” value in series [10] (setting [15]) was 2.58%. Also, the “%-inhibition at 1 µmol/L, WNK3” value in series [11] (setting [15]) is listed as 1.5%. For the same compound, the “%-inhibition, NuaK2” value in [12] (setting [15]) is recorded as 4%.
In the case of `CC(=O)Nc1cccc(-n2c(=O)n(C3CC3)c(=O)c3c(Nc4ccc(I)cc4F)n(C)c(=O)c(C)c32)c1` [trametinib], in series [1] (setting [13]), the “%-inhibition, MSK1” value is reported as -0.531%. In addition, the “%-inhibition at 1 µmol/L, PKCγ” value in series [2] (setting [13]) is listed as 0.381%. The “%-inhibition at 1 µmol/L, FGFR1” value in [3] (setting [13]) is on record as -1.45%. Besides, the “%-inhibition at 1 µmol/L, PKCι” value in [4] (setting [13]) is recorded as 9%. The “%-inhibition at 1 µmol/L, JNK2” value in series [5] (setting [13]) is -4.73%. The “%-inhibition at 1 µmol/L, CK1α” value in series [6] (setting [13]) is on record as 3%. In series [7] (setting [14]), the “%-inhibition at 1 µmol/L, PKCδ” value is -4.75%. Moreover, the “%-inhibition at 1 µmol/L, PHKG1” value in series [8] (setting [13]) is -2.24%. The “%-inhibition at 1 µmol/L, PBK” value in [9] (setting [13]) is recorded as -3.79%. The “%-inhibition, PASK” value in [10] (setting [13]) is reported as -0.187%. Moreover, in [11] (setting [13]), the “%-inhibition at 1 µmol/L, WNK3” value is given as 1%. Also, the “%-inhibition, NuaK2” value in series [12] (setting [13]) is 9%.
Consider `CCCS(=O)(=O)Nc1ccc(F)c(C(=O)c2c[nH]c3ncc(-c4ccc(Cl)cc4)cc23)c1F` [vemurafenib], for which the “%-inhibition, MSK1” value in series [1] (setting [13]) is listed as 0.256%. Further, the “%-inhibition at 1 µmol/L, PKCγ” value in series [2] (setting [13]) is -4.39%. Further, the “%-inhibition at 1 µmol/L, FGFR1” value in series [3] (setting [13]) was 21%. In addition, the “%-inhibition at 1 µmol/L, PKCι” value in series [4] (setting [13]) is -16%. The “%-inhibition at 1 µmol/L, JNK2” value in series [5] (setting [13]) is -0.0632%. Moreover, the “%-inhibition at 1 µmol/L, CK1α” value in series [6] (setting [13]) is -4.34%. The “%-inhibition at 1 µmol/L, PKCδ” value in series [7] (setting [14]) is reported as -5%. The “%-inhibition at 1 µmol/L, PHKG1” value in series [8] (setting [13]) is on record as -0.913%. Moreover, in [9] (setting [13]), the “%-inhibition at 1 µmol/L, PBK” value is recorded as -12%. Further, in [10] (setting [13]), the “%-inhibition, PASK” value is on record as 2.35%. In addition, the “%-inhibition at 1 µmol/L, WNK3” value in series [11] (setting [13]) is listed as 53%. In [12] (setting [13]), the “%-inhibition, NuaK2” value is given as 4.36%.
